What was measured:
Assay in all cases: cells
Assay type in all cases: functional, cell-based, Homo sapiens
[1] = system: LB1047-RCC; details: Homo sapiens, LB1047-RCC;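 further: inhibition of cell growth, determined with a cell viability assay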
Description: SANGER: Inhibition of human LB1047-RCC cell growth in a cell viability assay.

[2] = system: EW-3; details: Homo sapiens, EW-3;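 further: cell viability assay read-out, IC50 reflects inhibition of growth of the EW-3 cells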
Description: SANGER: Inhibition of human EW-3 cell growth in a cell viability assay.

[3] = system: BE-13; details: Homo sapiens, BE-13;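 further: growth inhibition of human BE-13 cells, measured with a cell viability assay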
Description: SANGER: Inhibition of human BE-13 cell growth in a cell viability assay.

[4] = system: KM-H2; details: Homo sapiens, KM-H2;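 further: growth inhibition of KM-H2 cells, read out by a cell viability assay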
Description: SANGER: Inhibition of human KM-H2 cell growth in a cell viability assay.

[5] = system: LS-513; details: Homo sapiens, LS-513
Description: SANGER: Inhibition of human LS-513 cell growth in a cell viability assay.

[6] = system: CCRF-CEM; details: Homo sapiens, CCRF-CEM;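 further: inhibition of CCRF-CEM cell growth, measured by a cell viability assay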
Description: SANGER: Inhibition of human CCRF-CEM cell growth in a cell viability assay.

[7] = system: DMS-79; details: Homo sapiens, DMS-79;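 further: growth inhibition measured with a cell viability assay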
Description: SANGER: Inhibition of human DMS-79 cell growth in a cell viability assay.

[8] = system: HCC 2998; details: Homo sapiens, HCC 2998;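 further: growth inhibition of human HCC2998 cells, measured with a cell viability read-out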
Description: SANGER: Inhibition of human HCC2998 cell growth in a cell viability assay.

[9] = system: OMC-1; details: Homo sapiens, OMC-1;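 further: growth inhibition of the OMC-1 cell line, measured by a cell viability assay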
Description: SANGER: Inhibition of human OMC-1 cell growth in a cell viability assay.

[10] = system: RS4-11; details: Homo sapiens, RS4-11;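 further: growth inhibition of RS4-11 cells, read out by a cell viability assay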
Description: SANGER: Inhibition of human RS4-11 cell growth in a cell viability assay.

[11] = system: IST-MES1; details: Homo sapiens, IST-MES1;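 further: growth inhibition of IST-MES1 cells, measured with a cell viability assay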
Description: SANGER: Inhibition of human IST-MES1 cell growth in a cell viability assay.

[12] = system: ES3; details: Homo sapiens, ES3;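 further: growth inhibition of ES3 cells, read out with a cell viability assay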
Description: SANGER: Inhibition of human ES3 cell growth in a cell viability assay.

[13] = system: NEC8; details: Homo sapiens, NEC8;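 further: growth inhibition of human NEC8 cells, read out by a cell viability assay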
Description: SANGER: Inhibition of human NEC8 cell growth in a cell viability assay.

[14] = system: KNS-81-FD; details: Homo sapiens, KNS-81-FD;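 further: growth inhibition of KNS-81-FD cells, read out with a cell viability assay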
Description: SANGER: Inhibition of human KNS-81-FD cell growth in a cell viability assay.

[15] = system: NCI-H1770; details: Homo sapiens, NCI-H1770;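 further: growth inhibition of NCI-H1770 cells determined with a viability readout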
Description: SANGER: Inhibition of human NCI-H1770 cell growth in a cell viability assay.

[16] = system: JVM-3; details: Homo sapiens, JVM-3;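 further: growth inhibition of human JVM-3 cells, read out with a cell viability assay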
Description: SANGER: Inhibition of human JVM-3 cell growth in a cell viability assay.

[17] = system: D283 Med; details: Homo sapiens, D283 Med
Description: SANGER: Inhibition of human D-283MED cell growth in a cell viability assay.

[18] = system: IST-MEL1; details: Homo sapiens, IST-MEL1;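 further: growth inhibition of the cell line, read out with a cell viability assay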
Description: SANGER: Inhibition of human IST-MEL1 cell growth in a cell viability assay.

[19] = system: D-502MG; details: Homo sapiens, D-502MG
Description: SANGER: Inhibition of human D-502MG cell growth in a cell viability assay.

[20] = system: NCI-H747; details: Homo sapiens, NCI-H747;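 further: growth inhibition of human NCI-H747 cells, read out by a cell viability assay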
Description: SANGER: Inhibition of human NCI-H747 cell growth in a cell viability assay.

[21] = system: ATN-1; details: Homo sapiens, ATN-1;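 further: growth inhibition of human ATN-1 cells, read out with a cell viability assay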
Description: SANGER: Inhibition of human ATN-1 cell growth in a cell viability assay.

[22] = system: GT3TKB; details: Homo sapiens, GT3TKB;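 further: growth inhibition of the cell line, read out with a cell viability assay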
Description: SANGER: Inhibition of human GT3TKB cell growth in a cell viability assay.

[23] = system: KS-1; details: Homo sapiens, KS-1;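 further: growth inhibition of KS-1 cells, read out with a cell viability assay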
Description: SANGER: Inhibition of human KS-1 cell growth in a cell viability assay.

[24] = system: EW-18; details: Homo sapiens, EW-18;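 further: growth inhibition of EW-18 cells, read out by a cell viability assay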
Description: SANGER: Inhibition of human EW-18 cell growth in a cell viability assay.

[25] = system: KLE; details: Homo sapiens, KLE;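 further: growth inhibition of human KLE cells, read out with a cell viability assay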
Description: SANGER: Inhibition of human KLE cell growth in a cell viability assay.

[26] = system: KMOE-2; details: Homo sapiens, KMOE-2;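 further: growth inhibition of human KMOE-2 cells, read out with a cell viability assay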
Description: SANGER: Inhibition of human KMOE-2 cell growth in a cell viability assay.

[27] = system: NCI-H1155; details: Homo sapiens, NCI-H1155;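 further: cell growth inhibition measured by a viability assay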
Description: SANGER: Inhibition of human NCI-H1155 cell growth in a cell viability assay.

[28] = system: KARPAS-299; details: Homo sapiens, KARPAS-299
Description: SANGER: Inhibition of human KARPAS-299 cell growth in a cell viability assay.

[29] = system: NCI-H69; details: Homo sapiens, NCI-H69;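 further: growth inhibition of the cell line, read out with a cell viability assay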
Description: SANGER: Inhibition of human NCI-H69 cell growth in a cell viability assay.

[30] = system: ES8; details: Homo sapiens, ES8;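 further: growth inhibition of human ES8 cells, read out with a cell viability assay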
Description: SANGER: Inhibition of human ES8 cell growth in a cell viability assay.

[31] = system: TK-10; details: Homo sapiens, TK-10;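 further: growth inhibition of TK-10 cells, read out in a cell viability assay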
Description: SANGER: Inhibition of human TK10 cell growth in a cell viability assay.

[32] = system: NCI-H1648; details: Homo sapiens, NCI-H1648;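 further: cell viability assay measuring inhibition of NCI-H1648 cell growth, from the Sanger screening data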
Description: SANGER: Inhibition of human NCI-H1648 cell growth in a cell viability assay.

[33] = system: HDLM-2; details: Homo sapiens, HDLM-2;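 further: cell viability assay measuring suppression of HDLM-2 proliferation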
Description: SANGER: Inhibition of human HDLM-2 cell growth in a cell viability assay.

[34] = system: HT; details: Homo sapiens, HT
Description: SANGER: Inhibition of human HT cell growth in a cell viability assay.

[35] = system: RKO; details: Homo sapiens, RKO;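 further: growth inhibition of human RKO cells, read out with a cell viability assay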
Description: SANGER: Inhibition of human RKO cell growth in a cell viability assay.

[36] = system: EC-GI-10; details: Homo sapiens, EC-GI-10
Description: SANGER: Inhibition of human EC-GI-10 cell growth in a cell viability assay.

[37] = system: SK-LMS-1; details: Homo sapiens, SK-LMS-1;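 further: growth inhibition of human SK-LMS-1 cells, read out with a cell viability assay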
Description: SANGER: Inhibition of human SK-LMS-1 cell growth in a cell viability assay.

[38] = system: ACN; details: Homo sapiens, ACN;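 further: growth inhibition of the human ACN cell line, read out via cell viability testing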
Description: SANGER: Inhibition of human ACN cell growth in a cell viability assay.

[39] = system: MMAC-SF; details: Homo sapiens, MMAC-SF;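 further: growth inhibition of human MMAC-SF cells, read out with a cell viability assay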
Description: SANGER: Inhibition of human MMAC-SF cell growth in a cell viability assay.

[40] = system: CP66-MEL; details: Homo sapiens, CP66-MEL;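 further: growth inhibition of CP66-MEL cells determined in a cell viability assay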
Description: SANGER: Inhibition of human CP66-MEL cell growth in a cell viability assay.

[41] = system: COLO-800; details: Homo sapiens, COLO-800;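 further: growth inhibition of COLO-800 cells, read out with a cell viability assay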
Description: SANGER: Inhibition of human COLO-800 cell growth in a cell viability assay.

[42] = system: MHH-NB-11; details: Homo sapiens, MHH-NB-11;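 further: growth inhibition of human MHH-NB-11 cells, read out by a cell viability assay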
Description: SANGER: Inhibition of human MHH-NB-11 cell growth in a cell viability assay.

[43] = system: NCI-H1092; details: Homo sapiens, NCI-H1092;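 further: cell growth inhibition measured with a cell viability assay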
Description: SANGER: Inhibition of human NCI-H1092 cell growth in a cell viability assay.

[44] = system: HOP-62; details: Homo sapiens, HOP-62;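 further: cell growth inhibition determined with a viability assay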
Description: SANGER: Inhibition of human HOP-62 cell growth in a cell viability assay.

[45] = system: LB373-MEL-D; details: Homo sapiens, LB373-MEL-D;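 further: growth inhibition of the cell line, read out in a cell viability assay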
Description: SANGER: Inhibition of human LB373-MEL-D cell growth in a cell viability assay.

[46] = system: SK-PN-DW; details: Homo sapiens, SK-PN-DW;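 further: growth inhibition measured with a viability assay on these cells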
Description: SANGER: Inhibition of human SK-PN-DW cell growth in a cell viability assay.

[47] = system: BB65-RCC; details: Homo sapiens, BB65-RCC;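 further: growth inhibition of the cell line, measured with a cell viability assay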
Description: SANGER: Inhibition of human BB65-RCC cell growth in a cell viability assay.

[48] = system: LC-2-ad; details: Homo sapiens, LC-2-ad;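 further: growth inhibition of human LC-2-ad cells, read out with a cell viability assay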
Description: SANGER: Inhibition of human LC-2-ad cell growth in a cell viability assay.

[49] = system: NB10; details: Homo sapiens, NB10;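 further: growth inhibition of NB10 cells, read out by a cell viability assay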
Description: SANGER: Inhibition of human NB10 cell growth in a cell viability assay.

CN(C)C(=N)NC(=N)N [METFORMIN]
IC50 [1]: 16400 µM | IC50 [2]: 12200 µM | IC50 [3]: 18000 µM | IC50 [4]: 18700 µM | IC50 [5]: > 20000 µM | IC50 [6]: 2720 µM | IC50 [7]: 5970 µM | IC50 [8]: > 20000 µM | IC50 [9]: 16500 µM | IC50 [10]: > 20000 µM | IC50 [11]: > 20000 µM | IC50 [12]: 16900 µM | IC50 [13]: 16000 µM | IC50 [14]: 8880 µM | IC50 [15]: 4100 µM | IC50 [16]: > 20000 µM | IC50 [17]: > 20000 µM | IC50 [18]: > 20000 µM | IC50 [19]: > 20000 µM | IC50 [20]: > 20000 µM | IC50 [21]: 8650 µM | IC50 [22]: > 20000 µM | IC50 [23]: > 20000 µM | IC50 [24]: 5850 µM | IC50 [25]: > 20000 µM | IC50 [26]: > 20000 µM | IC50 [27]: 17700 µM | IC50 [28]: > 20000 µM | IC50 [29]: 8560 µM | IC50 [30]: 17100 µM | IC50 [31]: > 20000 µM | IC50 [32]: > 20000 µM | IC50 [33]: 18400 µM | IC50 [34]: 11900 µM | IC50 [35]: > 20000 µM | IC50 [36]: > 20000 µM

CC[C@H](CO)Nc1nc(NCc2ccccc2)c2ncn(C(C)C)c2n1 [SELICICLIB]
IC50 [1]: > 16 µM | IC50 [37]: > 16 µM | IC50 [38]: > 16 µM | IC50 [2]: > 16 µM | IC50 [3]: > 16 µM | IC50 [4]: > 16 µM | IC50 [39]: > 16 µM | IC50 [5]: > 16 µM | IC50 [6]: > 16 µM | IC50 [7]: > 16 µM | IC50 [40]: > 16 µM | IC50 [8]: > 16 µM | IC50 [9]: > 16 µM | IC50 [10]: > 16 µM | IC50 [41]: > 16 µM | IC50 [11]: > 16 µM | IC50 [12]: > 16 µM | IC50 [13]: > 16 µM | IC50 [42]: > 16 µM | IC50 [14]: > 16 µM | IC50 [15]: > 16 µM | IC50 [16]: > 16 µM | IC50 [17]: > 16 µM | IC50 [18]: > 16 µM | IC50 [43]: > 16 µM | IC50 [19]: > 16 µM | IC50 [20]: > 16 µM | IC50 [21]: > 16 µM | IC50 [22]: > 16 µM | IC50 [23]: 9.46 µM | IC50 [44]: > 16 µM | IC50 [24]: > 16 µM | IC50 [26]: > 16 µM | IC50 [27]: > 16 µM | IC50 [45]: > 16 µM | IC50 [28]: > 16 µM | IC50 [29]: > 16 µM | IC50 [30]: > 16 µM | IC50 [46]: > 16 µM | IC50 [31]: > 16 µM | IC50 [47]: 9.97 µM | IC50 [32]: > 16 µM | IC50 [33]: > 16 µM | IC50 [48]: > 16 µM | IC50 [34]: > 16 µM | IC50 [35]: > 16 µM | IC50 [49]: > 16 µM | IC50 [36]: > 16 µM

C#Cc1cccc(Nc2ncnc3cc(OCCOC)c(OCCOC)cc23)c1 [ERLOTINIB]
IC50 [1]: > 2 µM | IC50 [37]: > 2 µM | IC50 [38]: > 2 µM | IC50 [2]: > 2 µM | IC50 [3]: > 2 µM | IC50 [4]: > 2 µM | IC50 [39]: > 2 µM | IC50 [5]: > 2 µM | IC50 [6]: > 2 µM | IC50 [7]: > 2 µM | IC50 [40]: > 2 µM | IC50 [8]: > 2 µM | IC50 [9]: > 2 µM | IC50 [10]: > 2 µM | IC50 [41]: > 2 µM | IC50 [11]: > 2 µM | IC50 [12]: > 2 µM | IC50 [13]: > 2 µM | IC50 [42]: > 2 µM | IC50 [14]: > 2 µM | IC50 [15]: > 2 µM | IC50 [16]: > 2 µM | IC50 [17]: > 2 µM | IC50 [18]: > 2 µM | IC50 [43]: > 2 µM | IC50 [19]: > 2 µM | IC50 [20]: > 2 µM | IC50 [21]: > 2 µM | IC50 [22]: > 2 µM | IC50 [23]: > 2 µM | IC50 [44]: > 2 µM | IC50 [24]: > 2 µM | IC50 [26]: > 2 µM | IC50 [45]: > 2 µM | IC50 [28]: > 2 µM | IC50 [29]: > 2 µM | IC50 [30]: > 2 µM | IC50 [46]: > 2 µM | IC50 [31]: 0.859 µM | IC50 [47]: > 2 µM | IC50 [32]: 0.04 µM | IC50 [33]: > 2 µM | IC50 [48]: > 2 µM | IC50 [34]: > 2 µM | IC50 [35]: > 2 µM | IC50 [49]: > 2 µM | IC50 [36]: > 2 µM
